Experimental data from publication PMC6152009, “The Influence of Glycosylation of Natural and Synthetic Prenylated Flavonoids on Binding to Human Serum Albumin and Inhibition of Cyclooxygenases COX-1 and COX-2” (Molecules : A Journal of Synthetic Chemistry and Natural …, 2017).

Each molecule was assayed against T1, human serum albumin (HSA) (Homo sapiens, UniProt P02768) (assay: intrinsic fluorescence quenching, double-log plot). Settings: 300 K, phosphate buffer pH 7.4, 15 µM HSA, <2% DMSO.
T1 construct: gene ALB; essentially fatty acid free HSA
Assay type: binding
Text: intrinsic fluorescence quenching, double-log plot on human serum albumin (HSA)

T1 sequence (P02768 25-609): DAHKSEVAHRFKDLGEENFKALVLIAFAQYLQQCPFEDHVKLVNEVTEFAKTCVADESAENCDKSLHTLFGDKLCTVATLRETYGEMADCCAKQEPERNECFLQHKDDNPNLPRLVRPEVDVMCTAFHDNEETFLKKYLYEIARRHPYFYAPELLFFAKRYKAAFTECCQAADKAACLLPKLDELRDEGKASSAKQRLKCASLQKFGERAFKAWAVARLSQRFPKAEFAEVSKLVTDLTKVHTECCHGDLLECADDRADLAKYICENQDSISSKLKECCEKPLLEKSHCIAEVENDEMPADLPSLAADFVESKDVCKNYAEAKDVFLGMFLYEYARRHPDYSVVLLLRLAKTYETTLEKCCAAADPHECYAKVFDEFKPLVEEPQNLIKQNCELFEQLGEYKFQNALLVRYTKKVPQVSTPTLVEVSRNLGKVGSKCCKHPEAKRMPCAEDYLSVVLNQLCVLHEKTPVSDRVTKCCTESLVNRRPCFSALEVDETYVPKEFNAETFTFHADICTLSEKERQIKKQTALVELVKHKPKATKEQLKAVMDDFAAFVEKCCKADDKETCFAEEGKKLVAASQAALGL

| Kb [M⁻¹] | Structure (SMILES) |
| --- | --- |
| 86240 | COc1cc(O)c(CC=C(C)C)c(O)c1C(=O)/C=C/c1ccc(O)cc1 [compound 1, 3’-[3”,3”-dimethylallyl]-2’,4’,4-trihydroxy-6’-methoxychalcone] |
| 36350 | COc1cc(O)c(CC=C(C)C)c(O)c1C(=O)CCc1ccc(O)cc1 [compound 2, α,β-dihydroxanthohumol] |
| 14250 | COc1cc(O)c(CC=C(C)C)c2c1C(=O)/C(=C/c1ccc(O)cc1)O2 [compound 3, (Z)-6,4’-dihydroxy-4-methoxy-7-prenylaurone] |
| 32710 | COc1cc(O[C@@H]2O[C@H](CO)[C@@H](O)[C@H](O)[C@H]2O)c(CC=C(C)C)c(O)c1C(=O)/C=C/c1ccc(O)cc1 [compound 4, Xanthohumol 4’-O-β-D-glucopyranoside] |
| 4550 | COc1cc(O[C@@H]2O[C@H](CO)[C@@H](OC)[C@H](O)[C@H]2O)c(CC=C(C)C)c(O)c1C(=O)/C=C/c1ccc(O)cc1 [compound 5, Xanthohumol 4’-O-β-D-(4’’’-O-methyl)glucopyranoside] |
| 4480 | COc1cc(O[C@@H]2O[C@H](CO)[C@@H](O)[C@H](O)[C@H]2O)c(CC=C(C)C)c(O)c1C(=O)CCc1ccc(O)cc1 [compound 6, α,β-Dihydroxanthohumol 4’-O-β-D-glucopyranoside] |
| 6110 | COc1cc(O[C@@H]2O[C@H](CO)[C@@H](OC)[C@H](O)[C@H]2O)c(CC=C(C)C)c(O)c1C(=O)CCc1ccc(O)cc1 [compound 7, α,β-Dihydroxanthohumol 4’-O-β-D-(4’’’-O-methyl)glucopyranoside] |
| 4850 | COc1cc(O[C@@H]2O[C@H](CO)[C@@H](O)[C@H](O)[C@H]2O)c(CC=C(C)C)c2c1C(=O)/C(=C/c1ccc(O)cc1)O2 [compound 8, (Z)-6,4’-Dihydroxy-4-methoxy-7-prenylaurone 6-O-β-D-glucopyranoside] |
| 9150 | COc1cc(O[C@@H]2O[C@H](CO)[C@@H](OC)[C@H](O)[C@H]2O)c(CC=C(C)C)c2c1C(=O)/C(=C/c1ccc(O)cc1)O2 [compound 9, (Z)-6,4’-Dihydroxy-4-methoxy-7-prenylaurone 6-O-β-D-(4’’’-O-methyl)glucopyranoside] |
